Patent US20040133038A1, “Method of purifying aromatic polycarboxylic acid” (priority 2001, published 2004)
Where two headings read alike, the source gives them in different places. One block for each compound: values may come before it.

Assay: solubility in water
Type: physicochemical

SMILES: O=C(O)c1ccc2cc(C(=O)O)ccc2c1 [2,6-naphthalenedicarboxylic acid]
- amount dissolved in 600 g of water, calculated from the solubility: 36 g

- solubility in water relative to that of terephthalic acid: 1/10
SMILES: O=C(O)c1ccc(-c2ccc(C(=O)O)cc2)cc1 [biphenyldicarboxylic acid]

SMILES: O=C(O)c1ccc2cc(C(=O)O)ccc2c1 [naphthalenedicarboxylic acid]
- solubility in water relative to that of terephthalic acid (fraction of the solubility of terephthalic acid): 1/10

- solubility in water: 6.5 g/100 g
- amount dissolved in 600 g of water, calculated from the solubility (600 g of water, 230° C.): 39 g
SMILES: O=C(O)c1ccc(C(=O)O)cc1 [terephthalic acid]
